# Assay results taken from patent EP1105728B1, “MODULATING MULTIPLE LINEAGE KINASE PROTEINS” (CEPHALON, INC., priority 1998, dated 2000).
# Read-outs that look alike come from different tables or passages of the source.
# Key:
# [1] = system: intact embryonic dorsal root ganglia; assay: Neurite outgrowth from intact dorsal root ganglia; assay type: cell-based, chick; details: 250 nM Compound III-3 or 20 ng/ml NGF; 48 h
# Method: Ganglia were placed in 96 well plates previously coated with poly-1-omithine and laminin (5 µg each/ml phosphate buffered saline) in serum-free N2 medium (Bottenstein, et al., Proc. Natl. Acad. Sci. USA, 1979, 76, 514-517, which is incorporated herein by reference in its entirety) containing 0.05% bovine serum albumin (BSA) and maintained for 48 h at 37° and 5% CO2 in a humidified environment. Treated ganglia received either 250 nM Compound III-3 or 20 ng/ml NGF 2 h after plating.
# [2] = system: IL-2; assay: Induction of IL-2 in Jurkat cells by anti CD3 and anti CD28 antibodies (ELISA); assay type: cell-based; details: Homo sapiens
# Method: Jurkat cells were grown in RPMI 1640 medium supplemented with 10% fetal bovine serum. TNF-α was from Promega and anti CD3 and anti CD28 antibodies were from Pharmigen. Jurkat experiments were done in 200 µl in a 96 well plate. IL-2 was measured with an ELISA kit purchased from Boehringer Mannheim. The antibodies to CD3 and CD28 were allowed to bind to the plastic of the 96 well plate (18 hr in PBS) prior to addition of the Jurkat Cells. Cells were treated with compounds 1 hr prior to adding to the antibody coated plate. Antibodies to CD3 and CD28 were used to activate the T cell receptor and induce IL-2. I1-2 was released from the Jurkat cells between 6 hr and 24 hr after initiation of induction (Fig. 23A). No IL-2 was made constitutively (Fig. 23A CNT). The effect of Compound III-3 (1 hr treatment with Compound III-3 prior to induction) on IL-2 induction was next assessed (Fig. 23B). A Compound III-3 concentration of 500 nM inhibited IL-2 induction by greater than 80% (Fig. 23B).
# [3] = system: substantia nigra tyrosine hydroxylase immunoreactive neurons; assay: MPTP model: substantia nigra tyrosine hydroxylase immunoreactive neurons; assay type: in vivo, mice; details: MPTP 40 mg/kg; systemically administered (Fig. 22a)
# Method: MPTP was administered at a dose (40 mg/kg) that produces loss of striatal dopaminergic terminals and cell bodies in the substantia nigra. Tyrosine hydroxylase was used as a marker for dopamenergic nerve terminals in the substantia nigra. […] Since Compound III-3 is a known inhibitor of MLK3, activation of a downstream substrate of MLK3 was measured in MPTP- treated mice. Levels of phosphorylated MKK4 were measured using a phospho-MKK4 specific antibody (New England Biolabs, Beverly, MA) that recognizes the monophosphorylated form of MKK4 by either immunoblot (Fig. 22b) or ELISA (Fig. 22c). MPTP administration elevated levels of phosphorylated MKK4 in the substantia nigra by up to 5 fold over control levels (Fig. 22b). Peak elevations occurred 4 hrs after administration ofMPTP and coincided with peak CNS levels of MPP^+.
# [4] = system: SNB motor neurons; assay: Developmentally regulated motor neuronal death in the neonatal rat (SNB); assay type: in vivo
# Method: Untimed pregnant Sprague-Dawley rats were obtained from Harlan Laboratories (Indianapolis, IN). Female rat pups were injected daily, subcutaneously (SC), over the target perineal muscles, with Compound III-3 in 5% Solutol ™ HS 15 or vehicle along starting on the day of birth (P1) and continuing for 5 days (P5). On P10 or P60, pups were decapitated, blood was collected in heparinized capillary tubes, and the region of the spinal cord containing the sexually dimorphic spinal nucleus of the bulbocavemosus (SNB) and the perineal area containing the bulbocavernosus (BC) and levator ani (LA) muscles were dissected after perfusion of the animals with saline/formalin. The region of the spinal cord containing the SNB was postfixed, embedded in Paraplast, sectioned at 10µm, and stained with Cresylecht violet (Nordeen, et al., Science, 1985, 229, 671-673, which is incorporated herein by reference in its entirety). Motor neurons were counted at X500 in serial sections from the lumbar 5 to the sacral 1 region of the spinal cord as described previously (Nordeen, et al., supra). The microscopic enumeration was made on coded sections by an observer blinded to the treatment groups. Motor neuron counts were corrected for cell size and section thickness (Konisgsmark, Contemporary Research Methods in Neuroanatomy, Nauta & Ebbesson, Eds., 1970, Springer-Verlag, New York, pp.315-340, which is incorporated herein by reference in its entirety) and statistical analysis was by one-way analysis ofvariance (ANOVA). Perineal musculature was postfixed, decalcified, embedded in Paraplast, sectioned at I 0µm and stained with Milligan's Trichrome. […] The outline of muscle tissue was traced from alternate sections using a projection microscope (62.5), and the cross-sectional area was measured using a digitizing pad and a computer-based morphometry system (Sigmascan, Jandel Scientific). Muscle volume was calculated by talking the total cross-sectional area and multiplying it by the section thickness, and corrected for the percentage of the structure sampled.
# [5] = molecular target: T1, MEKK1 (Homo sapiens, UniProt Q13233); assay: JNK activity in Cos7 cells overexpressing HA-JNK1 with MEKK1; assay type: cell-based; details: 500 nM; Cos7 cells overexpressing HA-JNK1 with MEKK1 (Figure 15C)
# T1 construct: expressed in transfected cells; host or cells: Cos7
# T1 sequence (Q13233 whole entry, species assumed): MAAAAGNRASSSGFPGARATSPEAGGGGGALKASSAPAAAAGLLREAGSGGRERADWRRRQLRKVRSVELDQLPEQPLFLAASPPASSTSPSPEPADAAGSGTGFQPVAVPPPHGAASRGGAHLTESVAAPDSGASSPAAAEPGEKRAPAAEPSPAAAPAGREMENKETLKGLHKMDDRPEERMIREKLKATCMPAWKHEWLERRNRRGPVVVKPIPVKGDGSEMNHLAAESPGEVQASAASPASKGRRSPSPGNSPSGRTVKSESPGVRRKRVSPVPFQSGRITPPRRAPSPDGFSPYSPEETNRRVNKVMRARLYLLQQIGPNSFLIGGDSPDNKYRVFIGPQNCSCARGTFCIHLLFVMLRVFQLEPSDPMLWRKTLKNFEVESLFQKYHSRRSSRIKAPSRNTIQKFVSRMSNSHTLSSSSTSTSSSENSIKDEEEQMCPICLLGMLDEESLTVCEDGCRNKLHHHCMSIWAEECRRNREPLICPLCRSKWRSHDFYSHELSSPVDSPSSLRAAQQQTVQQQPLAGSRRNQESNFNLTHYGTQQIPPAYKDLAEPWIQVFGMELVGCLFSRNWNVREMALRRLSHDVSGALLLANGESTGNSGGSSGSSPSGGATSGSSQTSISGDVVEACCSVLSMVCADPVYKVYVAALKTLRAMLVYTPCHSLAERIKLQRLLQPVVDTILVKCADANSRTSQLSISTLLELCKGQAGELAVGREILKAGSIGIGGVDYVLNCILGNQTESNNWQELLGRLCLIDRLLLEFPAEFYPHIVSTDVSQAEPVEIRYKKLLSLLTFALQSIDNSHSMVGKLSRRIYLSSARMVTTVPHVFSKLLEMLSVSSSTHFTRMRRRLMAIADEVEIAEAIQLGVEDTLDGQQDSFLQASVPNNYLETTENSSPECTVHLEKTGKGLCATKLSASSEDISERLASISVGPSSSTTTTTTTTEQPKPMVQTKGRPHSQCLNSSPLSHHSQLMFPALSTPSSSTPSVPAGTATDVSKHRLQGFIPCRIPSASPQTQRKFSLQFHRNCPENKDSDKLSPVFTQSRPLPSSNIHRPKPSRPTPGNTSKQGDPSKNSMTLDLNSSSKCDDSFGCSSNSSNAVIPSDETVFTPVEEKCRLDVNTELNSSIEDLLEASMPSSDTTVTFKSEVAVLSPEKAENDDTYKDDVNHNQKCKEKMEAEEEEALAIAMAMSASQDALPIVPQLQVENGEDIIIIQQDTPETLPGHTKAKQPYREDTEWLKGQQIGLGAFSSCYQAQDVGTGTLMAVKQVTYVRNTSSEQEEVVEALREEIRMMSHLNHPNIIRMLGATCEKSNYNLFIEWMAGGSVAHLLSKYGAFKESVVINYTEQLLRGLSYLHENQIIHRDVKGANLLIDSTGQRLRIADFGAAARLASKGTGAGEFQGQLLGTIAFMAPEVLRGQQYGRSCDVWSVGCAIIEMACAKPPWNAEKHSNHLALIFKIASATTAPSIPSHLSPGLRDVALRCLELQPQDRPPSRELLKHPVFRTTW
# [6] = system: IL-1; assay: Induction of IL-1 by LPS in THP-1 cells (ELISA); assay type: cell-based
# Method: (§1) THP-1 cells were grown in RPMI 1640 medium supplemented with 10% fetal bovine serum. LPS (E.coli serotype 0111.B4, TCA extracted) was purchased from Sigma and dissolved in PBS. ELISA kits for assaying IL-1 and TNF-α were purchased from Boerhinger-Mannheim and assays on THP-1 culture medium were performed as directed by the manufacturer. Standard curves according to directions were obtained with each assay.
# (§2) Experiments were performed in 12 well culture plates with either 1 or 2 ml of THP-1 cells at 4 X 10^5 cells/ml. IL-1 and TNF-α were induced by the addition of LPS to the culture medium and the medium collected at various times thereafter for cytokine assay. Cells were removed by centrifugation and the supernatants frozen at -70°C until assay. To minimize costs experiments were performed in duplicate cultures and the duplicate supernatants were pooled after centrifugation. Each pooled supernatant was assayed in duplicate. Stock solutions of indolo- and fused pyrrolocarbazoles in 100% DMSO were diluted to the desired concentrations in either medium containing 10% fetal bovine serum or in medium containing 0.5 mg/ml BSA. Unless otherwise stated, compounds were added to the THP-1 cells 1 hr prior to the addition of LPS.
# [7] = system: TNF-α; assay: Induction of TNF-α by LPS in THP-1 cells (ELISA); assay type: cell-based; details: Homo sapiens
# Method: as §1, §2
smiles,measurement,setting,value
CCSCc1ccc2c(c1)c1c3c(c4c5cc(CSCC)ccc5n5c4c1n2C1CC(O)(C(=O)OC)C5(C)O1)CNC3=O (stereo not shown) [III-3],neurite outgrowth from intact dorsal root ganglia,[1],Neurites grew
same,inhibition at 0.5 µM,"[2]; Jurkat, 500 nM, 1 hr treatment prior to induction (Fig. 23B)",> 80%
same,IC50,[2]; Jurkat cells (Fig. 23C),0.139 µM
same,loss of substantia nigra tyrosine hydroxylase immunoreactive neurons after MPTP lesion,[3],attenuated the loss
same,rescued motor neurons identifiable morphologically 55 days after the last treatment,"[4]; 0.5 and 1 mg/kg per day PN 1-5, sacrifice at PN60",100%
same,enhancement in motor-neuronal survival,"[4]; 0.5 and 1 mg/kg per day sc, PN 1-5, female rats",70%
same,"weight loss, mortality, gross tissue damage",[4]; SNB model,"no associated weight loss, mortality, or gross tissue damage"
same,JNK pathway activated by MEKK1,[5],did not interfere with the JNK pathway
same,IC50,"[6]; Homo sapiens, THP-1, THP-1 cells, medium containing 10% fetal bovine serum, read-out: IC50 inhibition of the induction of IL-1",0.267 µM
same,IC50,"[6]; Homo sapiens, THP-1, THP-1 cells, serum-free medium (500 µg/ml BSA), cytokine not named, read-out: IC50 in serum-free medium",0.023 µM
same,IC50,"[6]; THP-1 cells, medium containing 10% fetal bovine serum, read-out: IC50 inhibition of the induction of IL-1",0.269 µM
same,IC50,"[7]; THP-1, LPS 2 µg/ml, serum-free medium, read-out: THP-1 Cells TNF-α IC50",0.029 µM
same,IC50,"[7]; THP-1 cells, medium containing 10% fetal bovine serum, read-out: IC50 inhibition of the induction of TNF-α",0.139 µM
